Reference: patent US20210386841A1, “COMPOSITIONS FOR TRANSFECTING mRNA INTO A CELL AND THEIR APPLICATIONS” (POLYPLUS TRANSFECTION, priority 2018, published 2021)

What was measured:
[1] = system: Caco-2 human colon epithelial cells; assay: eGFP mRNA transfection, Caco-2 cells (96-well); assay type: cell-based; conditions: co-lipid DOPE, ratio 1/2; 150 ng eGFP mRNA; 24 h
Method: Caco-2 (ATCC® HTB-37™) human colon epithelial cells were grown in DMEM 4.5 g/L glucose with 20% FBS supplemented with 1% non-essential amino acids, 1 mM sodium pyruvate, 2 mM glutamine and 100 U/mL of penicillin and 100 μg/mL of streptomycin at 37° C. in a 5% CO2 in air atmosphere.
(§1) mRNA eGFP (996 nt, reference L-6101) from TriLink Technologies was used for the in vitro transfection experiments and expressed enhanced green fluorescent protein which is a common reporter gene (eGFP). This mRNA was capped with a Cap 0, polyadenylated and modified with 5-methylcytidine and pseudo-uridine.
(§2) One day before transfection, Caco-2, THP-1 or BJ Cells were seeded at 10 000, 25 000, or 5 000 cells per well (96-well plate format), respectively, in 125 μL of their respective complete medium and incubated at 37° C. in a 5% CO2 in air atmosphere. For Jurkat cells, 25 000 cells were seeded per well prior transfection. On the day of transfection 150 ng of mRNA was added in 11.5 μL of 5% glucose solution, mixed with a vortex and incubated for 5 minutes at rt. Then, 1 μL of 1 mM cationic liposomal formulation was added onto the diluted mRNA, mixed with a vortex and incubated for 15 minutes at rt. The formulated mRNA solution (12.5 μL) was added into the well and the plate was incubated for 24 hours at 37° C. in a 5% CO2 in air atmosphere.
(§3) For the GFP expression analysis, the cell culture medium was removed for the adherent cells and 50 μL of trypsin-EDTA (1×, Lonza) was added and the plate was incubated for 5 minutes at 37° C. 150 μL of complete medium were added to neutralize the trypsin, and the GFP expression was analysed (2000 events) by flow cytometry (Exc 488 nm, Em 520 nm) using a Guava easyCyte 6HT cytometer (Millipore).
(§4) All these new liposomal formulations (Table 1) were assessed to deliver mRNA expressing an enhanced green fluorescent protein (eGFP) as reporter gene in order to determine the gene expression and the transfection efficiency (Table 2). mRNA eGFP capped with a Cap 0 in 5′-end, polyadenylated in 3′-end and modified with 5-methylcytidine and pseudo-uridine was used in the transfection assay. The transfection assay was performed as described in the Experimental section where 150 ng of mRNA eGFP was complexed with 1 μL of 1 mM cationic liposomal formulations in a 5% glucose solution before the addition on the cells. One day post-transfection, the eGFP expression was analyzed by flow cytometry to determine the percentage of transfection. Four different cell lines were used in this assay from easy to transfect cells to hard to transfect cells with plasmid DNA, including human BJ skin fibroblast cells, THP-1 human peripheral blood monocytes, Caco-2 human colon epithelial cells and Jurkat Clone E6-1 human T lymphoblast cells, respectively.

[2] = system: BJ human skin fibroblast cells; assay: eGFP mRNA transfection, BJ cells (96-well); assay type: cell-based; conditions: co-lipid DOPE, ratio 1/2; 150 ng eGFP mRNA; 24 h
Method: BJ (ATCC® CRL-2522™) human skin fibroblast cells were grown in Eagle's Minimum Essential Medium with 10% FBS and supplemented with 1% non-essential amino acids, 1 mM sodium pyruvate, 2 mM glutamine and 100 U/mL of penicillin and 100 μg/mL of streptomycin at 37° C. in a 5% CO2 in air atmosphere.
as §1, §2, §3, §4

[3] = system: BJ, THP-1, Caco-2 and Jurkat cells; assay: eGFP mRNA transfection, overall statements on the four cell lines; assay type: cell-based, human; conditions: formulated with co-lipid DOPE or DPyPE
Method: as §1, §2, §3, §4

[4] = system: THP-1 human peripheral blood monocyte cells; assay: eGFP mRNA transfection, THP-1 cells (96-well); assay type: cell-based; conditions: co-lipid DOPE, ratio 1/2; 150 ng eGFP mRNA; 24 h
Method: THP-1 (ATCC® TIB-202™) human peripheral blood monocyte cells were grown in RPMI-1640 with 10% FBS and supplemented with 10 mM HEPES buffer, 1 mM sodium pyruvate, 0.05 mM 2-mercaptoethanol, 2 mM glutamine, 100 U/mL of penicillin and 100 μg/mL of streptomycin at 37° C. in a 5% CO2 in air atmosphere.
as §1, §2, §3, §4

[5] = system: Jurkat Clone E6-1 human T lymphoblast cells; assay: eGFP mRNA transfection, Jurkat cells (96-well); assay type: cell-based; conditions: co-lipid DOPE, ratio compound/co-lipid 1/2; 150 ng eGFP mRNA, 1 μL of 1 mM formulation; 24 h, flow cytometry
Method: Jurkat Clone E6-1 (ATCC® TIB-152™) human T lymphoblast cells were grown in RPMI-1640 (LONZA) with 10% of FBS (EUROBIO) and supplemented with 2 mM Glutamine (LONZA), 100 U/mL of penicillin and 100 μg/mL of streptomycin (LONZA) at 37° C. in a 5% CO2 in air atmosphere.
as §1, §2, §3, §4

| SMILES | Transfection efficiency (eGFP %) CaCO2 [1] | Transfection efficiency (eGFP %) BJ [2] | transfection activity (in words) [3] | Transfection efficiency (eGFP %) THP-1 [4] | Transfection efficiency (eGFP %) Jurkat [5] |
| --- | --- | --- | --- | --- | --- |
| CCCCCCCCCCCCCCC(CCCCCCCCCCCCCC)[n+]1ccn(C)c1.[Cl-] [Compound W4.3, 1-methyl-3-(nonacosan-15-yl)-1H-imidazol-3-ium chloride] | 5-10% | 50-60% | reduced transfection activity | 30-40% | 0-1% |
| CCCCCCCCCCCCCCCCCCC(CCCCC(CCCCCCCCCCCCCC)CCCCCCCCCCCCCC)[n+]1ccn(CCO)c1.[Cl-] (stereo not drawn) [Compound W25.7, 1-(2-hydroxyethyl)-3-(24-tetradecyloctatriacontan-19-yl)-1H-imidazol-3-ium chloride] | 45-55% | 90-95% | without really affecting the transfection activity | 80-85% | 25-35% |
| CCCCCCCCCCCCCCCCC(CCCCCCCCCCCCCCCC)[n+]1ccn(C)c1.[Cl-] [Compound W5.3, 1-methyl-3-(tritriacontan-17-yl)-1H-imidazol-3-ium chloride] | 5-10% | 60-70% | reduced transfection activity | 50-60% | 0-2% |
| CCCCCCCC/C=C\CCCCCCCCC(CCCCC(CCCCCCCCCCCCCC)CCCCCCCCCCCCCC)[n+]1ccn(CC)c1.[Cl-] (stereo not drawn) [Compound W27.7, 1-ethyl-3-(24-tetradecyloctatriacont-9-en-19-yl)-1H-imidazol-3-ium chloride] | 65-75% | 90-95% | without really affecting the transfection activity | 40-50% | 5-10% |
| CCCCCCCCCCCCCCCCCCC(CCCCCCCCCCCCCCCCCC)CCCCC(CCCCCCCCCCCCCCCCCC)[n+]1ccn(C)c1.[Cl-] (stereo not drawn) [Compound W13.7, 1-methyl-3-(24-octadecyldotetracontan-19-yl)-1H-imidazol-3-ium chloride] | 75-80% | 65-75% | – | 80-85% | 10-20% |
| CCCCCCCCCCCCCCCCC(CCCCCCCCCCCCCCCC)CCC[n+]1ccn(C)c1 [Compound W29.5, 1-methyl-3-(4-hexadecylicosyl)-1H-imidazol-3-ium chloride] | – | – | without really affecting the transfection activity | 30-40% | 10-15% |
| CCCCCCC/C=C\CCCCCCCCC(CCCCCCCCCCCCCCCCCC)[n+]1ccn(C)c1.[Cl-] (stereo not drawn) [Compound W3.5, 1-methyl-3-(hexatriacont-8-en-18-yl)-1H-imidazol-3-ium chloride] | 35-40% | 80-95% | – | 35-45% | 10-15% |
| CCCCCCCCCCCCCCCCCCC(CCCC(CCCCCCCCCCCCCC)CCCCCCCCCCCCCC)[n+]1ccn(C)c1.[Cl-] (stereo not drawn) [Compound W28.7, 1-methyl-3-(15-tetradecylheptatriacontan-19-yl)-1H-imidazol-3-ium chloride] | 40-45% | 90-95% | without really affecting the transfection activity | 80-85% | 15-25% |
| CCCCCCCCCCCCCCCCCCC(CCCCCCCCCCCCCCCCC)C[n+]1ccn(C)c1.[Cl-] (stereo not drawn) [Compound W7.4, 1-methyl-3-(2-heptadecylicosyl)-1H-imidazol-3-ium chloride] | 5-15% | 65-75% | – | 40-50% | 5-15% |
| CCCCCCCCCCCCCCC(CCCCCCCCCCCCCC)CCCCC(CCCCCCCCCCCCCC)[n+]1ccn(CCO)c1.[Cl-] (stereo not drawn) [Compound W26.7, 1-(2-hydroxyethyl)-3-(20-tetradecyltetratriacontan-15-yl)-1H-imidazol-3-ium chloride] | 50-55% | 90-95% | without really affecting the transfection activity | 70-80% | 10-15% |
